Target: HSD17B13 (Homo sapiens (Human), UniProt Q7Z5P4)
Experiment: LC/MS estrone detection assay for HSD17B13 activity (estradiol to estrone)
Assay type: biochemical
Settings: estradiol substrate; for IC50: LC-MS/MS estrone detection; for Ki: LCMS, read-out: HSD17B13 Inhibition_Estradiol Substrate_LCMS: Ki
Protocol: The liquid chromatography/mass spectrometry (LC/MS) estrone detection assay monitors the conversion of estradiol to estrone by HSD17B13. This assay was undertaken in a 96 wp format (Eppendorf deep well Plate 96/500) in an 80 μl reaction volume containing: 4 μM of Estradiol (E2; Cayman; Ser. No. 10/006,315), 6 mM NAD+(Sigma; #N0623) and 30 nM HSD17B13 enzyme (in-house; E. coli expressed His-tagged, purified, soluble protein) in a reaction containing 1M potassium phosphate buffer pH 7.4, with 0.5% vehicle (DMSO). Reactions were incubated for 2 hours at 26.5° C., and estradiol (E2) conversion to estrone (E1) was quantitated by LC-MS/MS based analyte detection for both E2 and E1 using LCMS grade reagents.
Reactions were terminated by the addition of two volumes of acetonitrile (MeCN; LCMS grade; CAS #75/05/8) containing deuterated (D4)-E1 used as internal standard (Clear Synth; #CS-T-54273; 500 ng/mL final concentration). Samples were applied to pre-prepared Bond Elut-C18 extraction cartridges (3 mL; Agilent; Ser. No. 12/102,028), washed and eluted in MeCN. Eluates were dried under nitrogen and re-suspended in 60% methanol (LCMS grade methanol; CAS #67/56/1) before submission for analysis. Aqueous linearity for E2 and E1 were included for quantification.
Analysis of samples was undertaken on a XBridge BEH C18 column (Waters; #186003033) using 0.1% Diethyl Amine in MeCN (mobile phase A; DEA CAS #109-89-7) and 0.1% Diethyl Amine in milli-Q water (mobile phase B) in a 3 min gradient allowing 25% B. Analytes were detected in negative mode using MRM analysis, with E2 having a RT of 1.85 min and E1 having a RT of 2 min. Activity of the enzyme, in the absence of NAD+, was used to evaluate specificity of conversion. Enzyme activity in the presence of test samples was expressed as a percentage of the uninhibited enzyme activity, and plotted versus inhibitor concentration. Non-linear regression was performed using a four-parameter logistic model and GraphPad Prism software (GraphPad Software, La Jolla, CA). All assessments were undertaken in duplicate evaluations and pooled during extraction process and subsequently injected as duplicates for LC-MS/MS analysis.

Sequence of HSD17B13 (Q7Z5P4 20-300): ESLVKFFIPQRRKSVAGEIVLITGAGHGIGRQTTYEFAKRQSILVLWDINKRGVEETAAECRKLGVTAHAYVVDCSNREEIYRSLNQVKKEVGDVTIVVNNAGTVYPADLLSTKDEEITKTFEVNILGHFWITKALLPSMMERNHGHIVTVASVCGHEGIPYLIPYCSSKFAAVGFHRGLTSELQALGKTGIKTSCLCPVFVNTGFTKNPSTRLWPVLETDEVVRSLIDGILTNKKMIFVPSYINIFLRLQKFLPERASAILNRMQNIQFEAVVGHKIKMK

O=C(Nc1cccc2c1c(=O)n(Cc1ccccc1C(F)(F)F)c(=O)n2C1CC1)c1cc(Cl)c(O)c(Cl)n1 [Example 56, 4,6-dichloro-N-(1-cyclopropyl-2,4-dioxo-3-(2-(trifluoromethyl)benzyl)-1,2,3,4-tetrahydroquinazolin-5-yl)-5-hydroxypicolinamide]
IC50: 500 to 1000 nM

O=C(Nc1scnc1C(=O)NC1(c2ccccc2)CCC1)c1cc(Cl)c(O)c(Cl)n1 [Example 32, 5-(4,6-dichloro-5-hydroxypicolinamido)-N-(1-phenylcyclobutyl)thiazole-4-carboxamide]
IC50: ≤ 100 nM

O=C(Nc1scnc1C(=O)N1CCC(C(F)(F)F)CC1)c1cc(Cl)c(O)c(Cl)n1 [Example 44, 4,6-dichloro-5-hydroxy-N-(4-(4-(trifluoromethyl)piperidine-1-carbonyl)thiazol-5-yl)picolinamide]
IC50: 500 to 1000 nM

O=C(Nc1scnc1C(=O)NC12C[C@H]3C[C@@H](C1)C[C@@H](C2)C3)c1cc(Cl)c(O)c(Cl)n1 [Example 40, N-((3s,5s,7s)-adamantan-1-yl)-5-(4,6-dichloro-5-hydroxypicolinamido)thiazole-4-carboxamide]
IC50: ≤ 100 nM

O=C(Nc1ccc(F)c2nnn(Cc3ccccc3C(F)(F)F)c(=O)c12)c1cc(Cl)c(O)c(Cl)n1 [Example 13, 4,6-dichloro-N-(8-fluoro-4-oxo-3-(2-(trifluoromethyl)benzyl)-3,4-dihydrobenzo[d][1,2,3]triazin-5-yl)-5-hydroxypicolinamide]
IC50: 100 to 500 nM

O=C(Nc1nn(CC(F)(F)F)cc1C(=O)NCc1ccccc1C(F)(F)F)c1cc(Cl)c(O)c(Cl)c1 [Example 49, 3-(3,5-dichloro-4-hydroxybenzamido)-1-(2,2,2-trifluoroethyl)-N-(2-(trifluoromethyl)benzyl)-1H-pyrazole-4-carboxamide]
IC50: 100 to 500 nM

O=C(Nc1cccnc1C(=O)NCc1ccccc1OC(F)(F)F)c1cc(Cl)c(O)c(Cl)n1 [Example 52, 4,6-dichloro-5-hydroxy-N-(2-((2-(trifluoromethoxy)benzyl)carbamoyl)pyridin-3-yl)picolinamide]
IC50: 100 to 500 nM

O=C(Nc1scnc1C(=O)NCc1ccc2c(c1)OCO2)c1cc(Cl)c(O)c(Cl)n1 [Example 41, N-(benzo[d][1,3]dioxol-5-ylmethyl)-5-(4,6-dichloro-5-hydroxypicolinamido)thiazole-4-carboxamide]
IC50: 100 to 500 nM

Cn1cc(C(=O)NCc2ccccc2C(F)(F)F)c(NC(=O)c2cc(Cl)c(O)c(Cl)c2)n1 [Example 6, 3-(3,5-dichloro-4-hydroxybenzamido)-1-methyl-N-(2-(trifluoromethyl)benzyl)-1H-pyrazole-4-carboxamide]
IC50: 100 to 500 nM

O=C(Nc1n[nH]cc1C(=O)NCc1ccccc1C(F)(F)F)c1cc(Cl)c(O)c(Cl)n1 [Example 1, 4,6-dichloro-5-hydroxy-N-(4-((2-(trifluoromethyl)benzyl)carbamoyl)-1H-pyrazol-3-yl)picolinamide]
IC50: ≤ 100 nM

O=C(Nc1scnc1C(=O)NC1CCOc2ccccc21)c1cc(Cl)c(O)c(Cl)n1 (centres unmarked) [Example 43, N-(chroman-4-yl)-5-(4,6-dichloro-5-hydroxypicolinamido)thiazole-4-carboxamide]
IC50: 100 to 500 nM

O=C(Nc1sc(-c2cccnc2)nc1C(=O)NCc1ccccc1C(F)(F)F)c1cc(Cl)c(O)c(Cl)n1 [Example 51, 5-(4,6-dichloro-5-hydroxypicolinamido)-2-(pyridin-3-yl)-N-(2-(trifluoromethyl)benzyl)thiazole-4-carboxamide]
IC50: 100 to 500 nM

Cc1nc(C(=O)NCc2ccccc2C(F)(F)F)c(NC(=O)c2cc(Cl)c(O)c(Cl)n2)s1 [Example 26, 5-(4,6-dichloro-5-hydroxypicolinamido)-2-methyl-N-(2-(trifluoromethyl)benzyl)thiazole-4-carboxamide]
IC50: 100 to 500 nM

O=C(Nc1nn(-c2ccccc2)cc1C(=O)NCc1ccccc1C(F)(F)F)c1cc(Cl)c(O)c(Cl)c1 [Example 9, 3-(3,5-dichloro-4-hydroxybenzamido)-1-phenyl-N-(2-(trifluoromethyl)benzyl)-1H-pyrazole-4-carboxamide]
IC50: ≤ 100 nM

CCn1c(=O)n(Cc2ccccc2C(F)(F)F)c(=O)c2c(NC(=O)c3cc(Cl)c(O)c(Cl)n3)cccc21 [Example 18, 4,6-dichloro-N-(1-ethyl-2,4-dioxo-3-(2-(trifluoromethyl)benzyl)-1,2,3,4-tetrahydroquinazolin-5-yl)-5-hydroxypicolinamide]
IC50: 100 to 500 nM

O=C(Nc1sc(-c2cc(CN3CCCC3)ccc2F)nc1C(=O)NCc1ccccc1C(F)(F)F)c1cc(F)c(O)c(Cl)c1 [Example 105, 5-(3-chloro-5-fluoro-4-hydroxybenzamido)-2-(2-fluoro-5-(pyrrolidin-1-ylmethyl)phenyl)-N-(2-(trifluoromethyl)benzyl)thiazole-4-carboxamide]
Ki: 50 to 100 nM

Cc1nc2c(F)ccc(NC(=O)c3cc(Cl)c(O)c(Cl)c3)c2c(=O)n1[C@H]1CC[C@@H]1c1ccccc1 [Example 16, 3,5-dichloro-N-(8-fluoro-2-methyl-4-oxo-3-((1S,2R)-2-phenylcyclobutyl)-3,4-dihydroquinazolin-5-yl)-4-hydroxybenzamide]
IC50: ≤ 100 nM

Cc1nc(C(=O)NCc2ccccc2OC(F)(F)F)c(NC(=O)c2cc(Cl)c(O)c(Cl)c2)s1 [Example 21, 5-(3,5-dichloro-4-hydroxybenzamido)-2-methyl-N-(2-(trifluoromethoxy)benzyl)thiazole-4-carboxamide]
IC50: 100 to 500 nM

Cn1c(=O)n(Cc2ccccc2C(F)(F)F)c(=O)c2c(NC(=O)c3cc(Cl)c(O)c(Cl)n3)ccc(F)c21 [Example 19, 4,6-dichloro-N-(8-fluoro-1-methyl-2,4-dioxo-3-(2-(trifluoromethyl)benzyl)-1,2,3,4-tetrahydroquinazolin-5-yl)-5-hydroxypicolinamide]
IC50: 100 to 500 nM

Cn1c(=O)n(Cc2ccccc2C(F)(F)F)c(=O)c2c(NC(=O)c3cc(Cl)c(O)c(Cl)n3)cccc21 [Example 20, 4,6-dichloro-5-hydroxy-N-(1-methyl-2,4-dioxo-3-(2-(trifluoromethyl)benzyl)-1,2,3,4-tetrahydroquinazolin-5-yl)picolinamide]
IC50: 100 to 500 nM

Cc1nc(C(=O)NCc2ccccc2OC(F)(F)F)c(NC(=O)c2cc(Cl)c(O)c(Cl)n2)s1 [Example 22, 5-(4,6-dichloro-5-hydroxypicolinamido)-2-methyl-N-(2-(trifluoromethoxy)benzyl)thiazole-4-carboxamide]
IC50: 100 to 500 nM

O=C(Nc1sc(C2CCCCC2)nc1C(=O)NCc1ccccc1C(F)(F)F)c1cc(Cl)c(O)c(Cl)c1 [Example 83]
Ki: ≤ 50 nM

Cc1ccc(NC(=O)c2cc(Cl)c(O)c(Cl)c2)c2c(=O)n(C3CCC3c3ccccc3C(F)(F)F)c(C)nc12 (centres unmarked) [Example 17, 3,5-dichloro-N-(2,8-dimethyl-4-oxo-3-(2-(2-(trifluoromethyl)phenyl)cyclobutyl)-3,4-dihydroquinazolin-5-yl)-4-hydroxybenzamide]
IC50: 100 to 500 nM

O=C(Nc1ccc(-c2ccccc2)nc1C(=O)NCc1ccccc1OC(F)(F)F)c1cc(Cl)c(O)c(Cl)n1 [Example 58, 4,6-dichloro-5-hydroxy-N-(6-phenyl-2-((2-(trifluoromethoxy)benzyl)carbamoyl)pyridin-3-yl)picolinamide]
IC50: ≤ 100 nM

CN1CC=C(c2nc(C(=O)NCc3ccccc3C(F)(F)F)c(NC(=O)c3cc(Cl)c(O)c(Cl)n3)s2)CC1 [Example 85, 5-(4,6-dichloro-5-hydroxypicolinamido)-2-(1-methyl-1,2,3,6-tetrahydropyridin-4-yl)-N-(2-(trifluoromethyl)benzyl) thiazole-4-carboxamide]
Ki: 100 to 500 nM

Cc1nc(C(=O)NCc2ccccc2C(F)(F)F)c(NC(=O)c2cc(Cl)c(O)c(Cl)c2)s1 [Example 27, 5-(3,5-dichloro-4-hydroxybenzamido)-2-methyl-N-(2-(trifluoromethyl)benzyl)thiazole-4-carboxamide]
IC50: 100 to 500 nM

Cc1nsc(NC(=O)c2cc(Cl)c(O)c(Cl)n2)c1C(=O)NCc1ccccc1OC(F)(F)F [Example 29, 5-(4,6-dichloro-5-hydroxypicolinamido)-3-methyl-N-(2-(trifluoromethoxy)benzyl)isothiazole-4-carboxamide]
IC50: 100 to 500 nM

O=C(Nc1scnc1C(=O)NC1(c2ccccc2C(F)(F)F)CC1)c1cc(Cl)c(O)c(Cl)n1 [Example 24, 5-(4,6-dichloro-5-hydroxypicolinamido)-N-(1-(2-(trifluoromethyl)phenyl)cyclopropyl)thiazole-4-carboxamide]
IC50: 100 to 500 nM

O=C(Nc1sc(-c2ccc[nH]c2=O)nc1C(=O)NCc1ccccc1C(F)(F)F)c1cc(Cl)c(O)c(Cl)c1 [Example 77]
Ki: ≤ 50 nM

From patent US20250100993A1, “2-SUBSTITUTED THIAZOLE HSD17B13 INHIBITORS AND USES THEREOF” (Inipharm, Inc., priority 2022, published 2025)
